# Measured values from patent US20160215348A1, “GENE EXPRESSION BIOMARKERS AND THEIR USE FOR DIAGNOSTIC AND PROGNOSTIC APPLICATION IN PATIENTS POTENTIALLY IN NEED OF HDAC INHIBITOR TREATMENT” (4SC AG, priority 2013, published 2016).
# Test system: ZFP64
# Assay: qPCR relative expression (vs cycle 1, day 1, hour 0) in patients' whole blood
# Assay type: in vivo, human
# Conditions: HCC patients; Sorafenib 400 mg added to Resminostat 600 mg
# Description: 2.5 ml whole blood from patients was collected in PAXgene™ tubes (BD Biosciences) that contain chemicals to lyse the erythrocytes, stabilize RNA from degradation by RNases and minimize ex vivo changes in gene expression. The samples were incubated at 20° C. to 25° C. for 2 hours and then frozen at −20° C. until purification of total RNA.
# Total RNA was isolated from the whole blood samples stabilized in PAXgene™ buffer using a spin column based technique suitable for whole blood samples (like PAXgene™ Blood miRNA Kit or PAXgene™ Blood RNA Kit from Qiagen) according to the manufacturer's instructions. The purification began with a centrifugation step to pellet nucleic acids in the (PAXgene™ Blood RNA) tube. The resuspended pellet was incubated in buffers, optimized for maintenance of RNA stability together with proteinase K to bring about protein digestion. An additional centrifugation through the PAXgene™ Shredder spin column was carried out to homogenize the cell lysate and remove residual cell debris, and the supernatant of the flow-through fraction was transferred to a fresh microcentrifuge tube. Ethanol was added to adjust binding conditions, and the lysate was applied to a PAXgene™ RNA spin column. During a brief centrifugation, RNA was selectively bound to the PAXgene™ silica membrane as contaminants pass through. Remaining contaminants were removed in several efficient wash steps. Between the first and second wash steps, the membrane was treated with DNase I, as described herein below in 1.3 to remove trace amounts of bound DNA. After the wash steps, RNA was eluted in nuclease free water and heat-denatured.
# The High-Capacity cDNA Reverse Transcription Kit (Applied Biosystems) was used for reverse transcription of total RNA into single stranded cDNA with the aid of random hexamer primers according to the manufacturer's instructions. Briefly, for the reaction mix total RNA was mixed with random primers in excess, 4 mM dNTP Mix, 2.5 U/reaction, reverse transcriptase and nuclease free water. The reverse transcription took place in a thermal cycler under the following conditions: 25° C. for 10 min, 37° C. for 120 min, 85° C. for 5 min, followed by 4° C. for cooling down the reaction. The reverse transcription can be done in principle as well with other reverse transcriptases, primers and temperature protocols. Whenever possible, 250 ng total RNA were reverse transcribed if not available, lower amounts were used.
# Custom TaqMan® Arrays (Applied Biosystems) in Format 16 were designed for the gene expression analysis of biomarkers of the present invention and housekeeping genes as outlined in table 4. These arrays allow for qPCR analysis of 8 samples per card. Of course, all reactions can be done as well by conventional qPCR analysis with specific primers.
# The reaction mix was transferred into the reaction chambers by centrifuging twice for 1 minute each at 330 g and 4° C. After sealing, the microfluidic cards were run on an AB7900HT instrument (Applied Biosystems). The software SDS 2.4 (Applied Biosystems) was employed for instrument control, data acquisition and raw data analysis. The plates were run in Relative Quantification (ΔΔCt) mode, and the following temperature profile was used:
# This analysis was carried out for each patient separately. The first sample (cycle 1, day 1, hour 0) was used as the reference sample. The ‘exprs’ value indicates relative expression levels (fold change values) for individual samples.
# Table 5 contains the median expression level values for treatment day 5 (cycle 1, day 5, hours 0, 2, and 5) at a daily dose of 600 mg or 800 mg Resminostat mesylate salt is given below.
structure (smiles),measurement,value
"CNC(=O)c1cc(Oc2ccc(NC(=O)Nc3ccc(Cl)c(C(F)(F)F)c3)cc2)ccn1 [sorafenib, reference compound]",Effect of additional administration on ZFP64 expression (FIG. 4b),does not affect
